Source: patent US20230142274A1 (SIMCERE PHARMACEUTICAL CO., LTD., priority 2020, published 2023)

system: Daudi cells; experiment: Inhibition of human Daudi lymphoma cell proliferation (Cell-Titer Glo); assay type: cell-based; details: 3 days incubation, read-out: Anti-Proliferative Activity Against Daudi cells IC50
Procedure: Introduction of the experimental principle: After the RAD51 inhibitor to be tested was co-incubated with cancer cells for a period of time, the influence of the test compound on cell proliferation was measured by a method for counting cell proliferation based on the quantitative measurement of intracellular ATP content.
Materials and Cells: Daudi cells were purchased from ATCC; fetal bovine serum, 1640 medium and penicillin-streptomycin were purchased from Gibco Inc. (U.S.), 96-well plates were purchased from Corning Inc. (U.S.), and Cell-Titer Glo reagent was purchased from Promega Corporation (U.S.).
Cell culture: Daudi cells were cultured in 1640 culture medium containing 10% fetal bovine serum and 1% penicillin-streptomycin at 37° C. in an atmosphere containing 5% CO2. Cells in logarithmic growth phase could be used for experiments.
Assay of cell proliferation and viability: Cell-Titer Glo reagent was used to measure the inhibitory activities of the compounds on the proliferation of Daudi cell strain. The concentration of cells was adjusted, and the cells were seeded in a 96-well plate and cultured at 37° C. in an atmosphere containing 5% CO2 for 24 hours. The powder of the compound was dissolved in 100% DMSO to form a 10 mM solution. 10 μl of the solution of the compound was aspirated and transferred into a 96-well compound plate containing 20 μl of DMSO solution for 3-fold dilution and was then formulated into 10 serial dilutions. Thereafter, 2 μl of the solution of the compound was aspirated from the corresponding well and added correspondingly into a 96-well intermediate compound dilution plate containing 78 μl of complete culture medium in each well. The resultant was mixed well, and the plate was centrifuged at 1000 rpm for 1 minute. Finally, 10 μl of the solution of the compound was aspirated from the corresponding well of the 96-well intermediate compound dilution plate, and transferred into the corresponding well of the cell culture plate containing 90 μl of complete culture medium. The final concentration of DMSO was 0.25%. After the addition of the compound, the cells were continued to be incubated for 3 days at 37° C. in an atmosphere containing 5% CO2. Cell-Titer Glo reagent was added to measure cell viability.
% Compound inhibition was calculated and IC50 of the compound was filled;
% Compound inhibition=1−100%×(Signal−Bottom)/(Top−Bottom)

IC50 [µM]	Compound
0.06	COc1ccc(-c2ccc(-c3cnc([C@H]4CC[C@H](NC(=O)OC(C)C)CC4)s3)c([S@](=N)(=O)C3CC3)c2)cn1 (stereo in doubt) [Example 94-1, isopropyl trans-((4-(5-(2-((R)-cyclopropanesulfonimidoyl))-4-(6-methoxypyridin-3-yl)phenyl)thiazol-2-yl)cyclohexyl)carbamate]
9.72	CC(C)OC(=O)Nc1ccc(-c2cnc(N3CC4C(C3)C4NC(=O)OC(C)C)s2)c(S(=O)(=O)NC(C)(C)C)c1 (stereo not drawn) [Example 10, isopropyl exo-N-[3-(tert-butylsulfamoyl)-4-[2-[6-(isopropoxycarbonylamino)-3-azabicyclo[3.1.0]hex-3-yl]thiazol-5-yl]phenyl]carbamate]

same assay, conditions: Homo sapiens, 72 h, 3 days incubation, read-out: Anti-Proliferative Activity Against Daudi cells IC50

IC50 [µM]	Compound
2.65	CC(C)OC(=O)N[C@H]1CC[C@H](c2ncc(-c3ccc(Nc4ccon4)cc3S(=O)(=O)NC(C)(C)C)s2)CC1 [Example 30, isopropyl trans-(4-(5-(2-(N-(tert-butyl)sulfamoyl)-4-(isoxazol-3-ylamino)phenyl)thiazol-2-yl)cyclohexyl)carbamate]
0.15	Cc1cc(Nc2ccc(-c3cnc([C@H]4CC[C@H](NC(=O)OC(C)C)CC4)s3)c(S(=O)(=O)C(C)C)c2)sn1 [Example 38]
0.68	CC(C)OC(=O)N[C@H]1CC[C@H](c2ncc(-c3ccc(Nc4cccnn4)cc3S(=O)(=O)C(C)C)s2)CC1 [Example 44, isopropyl trans-N-[4-[5-[2-isopropylsulfonyl-4-(pyridazin-3-ylamino)phenyl]thiazol-2-yl]cyclohexyl]carbamate]
0.39	CC(C)OC(=O)N[C@H]1CC[C@H](c2ncc(-c3ccc(Nc4cc(C(F)(F)F)[nH]n4)cc3S(=O)(=O)C(C)C)s2)CC1 [Example 46]
0.065	Cc1cc(Nc2ccc(-c3cnc([C@H]4CC[C@H](NC(=O)OC(C)C)CC4)s3)c(S(=O)(=O)C(F)(F)F)c2)n[nH]1 [Example 51, isopropyl trans-N-[4-[5-[4-[(5-methyl-1H-pyrazol-3-yl)amino]-2-(trifluoromethylsulfonyl)phenyl]thiazol-2-yl]cyclohexyl]carbamate]
0.08	Cc1cc(Nc2ccc(-c3cnc(C4CCC(NC(=O)OC(C)C)CC4)s3)c([S+]([O-])C3CC3)c2)n[nH]1 (stereo not drawn) [Example 52, isopropyl trans-N-[4-[5-[2-cyclopropylsulfinyl]-4-[(5-methyl-1H-pyrazol-3-yl)amino]phenyl]thiazol-2-yl]cyclohexyl]carbamate]
0.07	CC(C)OC(=O)N[C@H]1CC[C@H](c2ncc(-c3ccc(Nc4cc(C5CC5)[nH]n4)cc3S(=N)(=O)C3CC3)s2)CC1 (stereo partly drawn) [Example 63, isopropyl trans-N-[4-[5-[4-[(5-cyclopropyl-1H-pyrazol-3-yl)amino]-2-(cyclopropylsulfonimidoyl)phenyl]thiazol-2-yl]cyclohexyl]carbamate]
0.018	CC(C)OC(=O)N[C@H]1CC[C@H](c2ncc(-c3ccc(Nc4ccccn4)cc3S(=O)(=O)C3CC3)s2)CC1 [Example 66, isopropyl trans-N-[4-[5-[2-cyclopropylsulfonyl-4-(2-pyridylamino)phenyl]thiazol-2-yl]cyclohexyl]carbamate]
0.016	CC(C)OC(=O)N[C@H]1CC[C@H](c2ncc(-c3ccc(Nc4cn[nH]c4)cc3S(=O)(=O)C3CC3)s2)CC1 [Example 71]
0.022	CC(C)OC(=O)NC1CCC(c2ncc(-c3ccc(Nc4ccc(F)cn4)cc3S(=O)(=O)C3CC3)s2)CC1 (stereo not drawn) [Example 75, isopropyl trans-N-[4-[5-[2-cyclopropylsulfonyl]-4-[(5-fluoro-2-pyridyl)amino]phenyl]thiazol-2-yl]cyclohexyl]carbamate]

Further lines, the molecule ahead of its results:

Compound	IC50 [µM]
CC(C)OC(=O)Nc1ccc(-c2cnc(N3CCC4(CC3)CN(C(=O)OC(C)C)C4)s2)c(S(=O)(=O)NC(C)(C)C)c1 [Example 8, isopropyl 7-(5-(2-(N-(tert-butyl)sulfamoyl)-4-((isopropoxycarbonyl)amino)phenyl)thiazol-2-yl)-2,7-diazaspiro[3.5]nonane-2-carboxylate]	3.95
CC(C)OC(=O)Nc1ccc(-c2cnc(N3CCCC(NC(=O)OC(C)C)CC3)s2)c(S(=O)(=O)NC(C)(C)C)c1 (centres unmarked) [Example 11, isopropyl N-[3-(tert-butylsulfamoyl)-4-[2-[4-(isopropoxycarbonylamino)azepan-1-yl]thiazol-5-yl]phenyl]carbamate]	2.54
CN=S(=O)(c1cc(NC(=O)OC(C)C)ccc1-c1cnc(C2CCC(NC(=O)OC(C)C)CC2)s1)C(C)C (stereo not drawn) [Example 20, isopropyl trans-N-[4-[2-[4-(isopropoxycarbonylamino)cyclohexyl]thiazol-5-yl]-3-(isopropyl-N-methyl-sulfonimidoyl)phenyl]carbamate]	2.75
CCP(=O)(CC)c1cc(NC(=O)OC(C)C)ccc1-c1cnc([C@H]2CC[C@H](NC(=O)OC(C)C)CC2)s1 [Example 23, isopropyl trans-N-[3-diethylphosphoryl-4-[2-[4-(isopropoxycarbonylamino)cyclohexyl]thiazol-5-yl]phenyl]carbamate]	3.93
CC(C)OC(=O)Nc1ccc(-c2cnc([C@H]3CC[C@H](NC(=O)OC(C)C)CC3)s2)c(S(=O)(=O)CC(C)(C)C)c1 [Example 24, isopropyl trans-N-[3-(2,2-dimethylpropylsulfonyl)-4-[2-[4-(isopropoxycarbonylamino)cyclohexyl]thiazol-5-yl]phenyl]carbamate]	2.27
CC(C)OC(=O)Nc1ccc(-c2cnc([C@H]3CC[C@H](NC(=O)OC(C)C)CC3)s2)c(P2(=O)CCCC2)c1 [Example 27, isopropyl trans-N-[4-[2-[4-(isopropoxycarbonylamino)cyclohexyl]thiazol-5-yl]-3-(1-oxophospholan-1-yl)phenyl]carbamate]	0.68
CC(C)OC(=O)N[C@H]1CC[C@H](c2ncc(-c3ccc(Nc4ccc[nH]c4=O)cc3S(=O)(=O)C(C)C)s2)CC1 [Example 35, isopropyl trans-N-[4-[5-[2-isopropylsulfonyl-4-[(2-oxo-1H-pyridin-3-yl)amino]phenyl]thiazol-2-yl]cyclohexyl]carbamate]	4.29
CC(C)OC(=O)Nc1ccc(-c2nnc([C@H]3CC[C@H](NC(=O)OC(C)C)CC3)s2)c(S(=N)(=O)C(C)C)c1 (stereo partly drawn) [Example 41, isopropyl trans-N-[4-[5-[4-(isopropoxycarbonylamino)cyclohexyl]-1,3,4-thiadiazol-2-yl]-3-(isopropylsulfonimidoyl)phenyl]carbamate]	0.9
CC(C)OC(=O)Nc1ccc(-c2cnc(C3CCC(NC(=O)OC(C)C)CC3)s2)c(S(C)(=O)=NC2CC2)c1 (stereo not drawn) [Example 43, isopropyl trans-N-[3-(N-cyclopropyl-S-methyl-sulfonimidoyl)-4-[2-[4-(isopropoxycarbonylamino)cyclohexyl]thiazol-5-yl]phenyl]carbamate]	1.58
CC(C)OC(=O)NC12CCC(c3ncc(-c4ccc(Nc5cn(C)nn5)cc4S(=O)(=O)C4CC4)s3)(CC1)CC2 [Example 58]	0.027
CC(C)OC(=O)Nc1ccc(-c2ncc(-c3ccc(Nc4cn(C)nn4)cc3S(=O)(=O)C3CC3)s2)cc1 [Example 59]	0.125
Cc1cc(Nc2ccc(-c3cnc(C45CCC(NC(=O)OC(C)C)(CC4)CC5)s3)c(S(=O)(=O)C3CC3)c2)n[nH]1 [Example 60]	0.004
Cc1cc(Nc2ccc(-c3cnc(-c4ccc(NC(=O)OC(C)C)cc4)s3)c(S(=O)(=O)C3CC3)c2)n[nH]1 [Example 61]	0.104
CC(C)OC(=O)NC1CCC(c2ncc(-c3ccc(N4CCCO4)cc3S(=N)(=O)C3CC3)s2)CC1 (stereo not drawn) [Example 64, isopropyl trans-(4-(5-(2-(cyclopropanesulfonimidoyl)-4-(isoxazolidin-2-yl)phenyl)thiazol-2-yl)cyclohexyl)carbamate]	5.2
CC(=O)Nc1ccc(-c2cnc([C@H]3CC[C@H](NC(=O)OC(C)C)CC3)s2)c(S(=N)(=O)C2CC2)c1 (stereo partly drawn) [Example 67, isopropyl trans-(4-(5-(4-acetylamino-2-(cyclopropanesulfonimidoyl)phenyl]thiazol-2-yl)cyclohexyl)carbamate]	2.6
CC(C)OC(=O)N[C@H]1CC[C@H](c2ncc(-c3ccc(N4CCCO4)cc3S(=O)(=O)C3CC3)s2)CC1 [Example 73, isopropyl trans-N-[4-[5-(2-cyclopropylsulfonyl-4-isoxazolidin-2-yl-phenyl)thiazol-2-yl]cyclohexyl]carbamate]	0.2
CC(C)OC(=O)N[C@H]1CC[C@H](c2ncc(-c3ccc(NC(=O)C4CC4)cc3S(=O)(=O)C3CC3)s2)CC1 [Example 74, isopropyl trans-(4-(5-(4-(cyclopropanecarboxamido)-2-(cyclopropylsulfonyl)phenyl)thiazol-2-yl)cyclohexyl)carbamate]	0.09
